| Structure (SMILES) | melting point |
| --- | --- |
| CCNC(=O)CC1CN=C(c2cc3cc(Oc4ccc(COC)nc4)cc(OC)c3[nH]2)S1 (stereo not shown) [Example 51, N-Ethyl-2-[2-(7-methoxy-5-{[6-(methoxymethyl)pyridin-3-yl]oxy}-1H-indol-2-yl)-4,5-dihydro-1,3-thiazol-5-yl]acetamide] | 130 to 132 °C |
| CNC(=O)CC1CN=C(c2cc3cc(Oc4ccc(S(C)(=O)=O)nc4)cc(OC)c3[nH]2)S1 (single isomer, unassigned) [Example 32, 2-[2-(7-Methoxy-5-{[6-(methylsulfonyl)pyridin-3-yl]oxy}-1H-indol-2-yl)-4,5-dihydro-1,3-thiazol-5-yl]-N-methylacetamide] | 195 to 197 °C |
| CCOC(=O)c1nnc(-c2cc3cc(Oc4ccc(S(C)(=O)=O)cc4)cc(OCc4ccccc4)c3[nH]2)s1 [Example 20, Ethyl 5-{7-(benzyloxy)-5-[4-(methylsulfonyl)phenoxy]-1H-indol-2-yl}-1,3,4-thiadiazole-2-carboxylate] | 194 to 195 °C |
| CNC(=O)CC1CN=C(c2cc3cc(Oc4ccc(S(C)(=O)=O)nc4)cc(OC)c3[nH]2)S1 (stereo not shown) [Example 30, 2-[2-(7-Methoxy-5-{[6-(methylsulfonyl)pyridin-3-yl]oxy}-1H-indol-2-yl)-4,5-dihydro-1,3-thiazol-5-yl]-N-Methylacetamide] | 201 to 202 °C |
| CNC(=O)CC1CN=C(c2cc3cc(Oc4ccc(S(C)(=O)=O)cn4)cc(OC)c3[nH]2)S1 (stereo not shown) [Example 42, 2-[2-(7-Methoxy-5-{[5-(methylsulfonyl)pyridin-2-yl]oxy}-1H-indol-2-yl)-4,5-dihydro-1,3-thiazol-5-yl]-N-methylacetamide] | 207 to 209 °C |
| CC(C)Oc1cc(Oc2ccc(S(C)(=O)=O)cn2)cc2cc(C3=NCC(CC(C)(C)O)S3)[nH]c12 (single isomer, unassigned) [Example 64, 2-Methyl-1-{2-[7-(1-methylethoxy)-5-{[5-(methylsulfonyl)pyridin-2-yl]oxy}-1H-indol-2-yl]-4,5-dihydro-1,3-thiazol-5-yl}propan-2-ol] | 145 to 146 °C |
| CNC(=O)CC1CN=C(c2cc3cc(Oc4ccc(S(C)(=O)=O)cn4)cc(OC(COC)COC)c3[nH]2)S1 (stereo not shown) [Example 46, 2-[2-(7-[2-Methoxy-1-(methoxymethyl)ethoxy]-5-{[5-(methylsulfonyl)pyridin-2-yl]oxy}-1H-indol-2-yl)-4,5-dihydro-1,3-thiazol-5-yl]-N-methylacetamide] | 123 to 125 °C |
| CNC(=O)CC1CN=C(c2cc3cc(Oc4ccc(COC)nc4)cc(OC)c3[nH]2)S1 (stereo not shown) [Example 50, 2-[2-(7-Methoxy-5-{[6-(methoxymethyl)pyridin-3-yl]oxy}-1H-indol-2-yl)-4,5-dihydro-1,3-thiazol-5-yl]-N-methylacetamide] | 102 to 104 °C |
| COc1cc(Oc2ccc(S(C)(=O)=O)nc2)cc2cc(C3=NCC(CC(N)=O)S3)[nH]c12 (stereo not shown) [Example 29, 2-[2-(7-Methoxy-5-{[6-(methylsulfonyl)pyridin-3-yl]oxy}-1H-indol-2-yl)-4,5-dihydro-1,3-thiazol-5-yl]acetamide] | 225 to 227 °C |
| CS(=O)(=O)c1ccc(Oc2cc(OCc3ccccc3)c3[nH]c(C4=NCC(CCO)S4)cc3c2)cc1 (stereo not shown) [Example 2, 2-(2-{7-(Benzyloxy)-5-[4-(methylsulfonyl)phenoxy]-1H-indol-2-yl}-4,5-dihydro-1,3-thiazol-5-yl)ethanol] | 97 to 98 °C |
| COCC(C)Oc1cc(Oc2ccc(S(C)(=O)=O)cc2)cc2cc(C3=NCC(CC(C)(C)O)S3)[nH]c12 (stereo not shown) [Example 60, 1-(2-{7-(2-Methoxy-1-methylethoxy)-5-[4-(methylsulfonyl)phenoxy]-1H-indol-2-yl}-4,5-dihydro-1,3-thiazol-5-yl)-2-methylpropan-2-ol] | 112 to 113 °C |
| COCc1ccc(Oc2cc(OC)c3[nH]c(C4=NCC(CC(N)=O)S4)cc3c2)cn1 (stereo not shown) [Example 49, 2-[2-(7-Methoxy-5-{[6-(methoxymethyl)pyridin-3-yl]oxy}-1H-indol-2-yl)-4,5-dihydro-1,3-thiazol-5-yl]acetamide] | 135 to 136 °C |
| CS(=O)(=O)c1ccc(Oc2cc(OCc3cccc(Cl)n3)c3[nH]c(C4=NCC(CC(N)=O)S4)cc3c2)cc1 (stereo not shown) [Example 8, 2-(2-{7-[(6-Chloropyridin-2-yl)methoxy]-5-[4-(methylsulfonyl)phenoxy]-1H-indol-2-yl}-4,5-dihydro-1,3-thiazol-5-yl)acetamide] | 147 to 148 °C |
| CS(=O)(=O)c1ccc(Oc2cc(OCc3cccc(Cl)n3)c3[nH]c(C4=NCC(CCO)S4)cc3c2)cc1 (stereo not shown) [Example 6, 2-(2-{7-[(6-Chloropyridin-2-yl)methoxy]-5-[4-(methylsulfonyl)phenoxy]-1H-indol-2-yl}-4,5-dihydro-1,3-thiazol-5-yl)ethanol] | 93 to 94 °C |
| COCC(COC)Oc1cc(Oc2ccc(S(C)(=O)=O)nc2)cc2cc(C3=NCC(CCO)S3)[nH]c12 (stereo not shown) [Example 37, 2-[2-(7-[2-Methoxy-1-(methoxymethyl)ethoxy]-5-{[6-(methylsulfonyl)pyridin-3-yl]oxy}-1H-indol-2-yl)-4,5-dihydro-1,3-thiazol-5-yl]ethanol] | 69 to 71 °C |
| CC(C)Oc1cc(Oc2ccc(S(C)(=O)=O)cn2)cc2cc(C3=NCC(CCO)S3)[nH]c12 (stereo not shown) [Example 62] | 172 to 173 °C |

Next, values leading:

| melting point | Structure (SMILES) |
| --- | --- |
| 160 to 161 °C | COCCOc1c(F)c(Oc2ccc(S(C)(=O)=O)nc2)cc2cc(C3=NCC(CCO)S3)[nH]c12 (stereo not shown) [Example 90, 2-{2-[6-Fluoro-7-(2-methoxyethoxy)-5-{[6-(methylsulfonyl)pyridin-3-yl]oxy}-1H-indol-2-yl]-4,5-dihydro-1,3-thiazol-5-yl}ethanol] |
| 236 to 237 °C | CCNC(=O)CC1CN=C(c2cc3cc(Oc4ccc(S(C)(=O)=O)nc4)cc(OC)c3[nH]2)S1 (stereo not shown) [Example 77, N-Ethyl-2-[2-(7-methoxy-5-{[6-(methylsulfonyl)pyridin-3-yl]oxy}-1H-indol-2-yl)-4,5-dihydro-1,3-thiazol-5-yl]acetamide] |
| 109 to 112 °C | COCC(C)Oc1cc(Oc2ccc(S(C)(=O)=O)cc2)cc2cc(C3=NCC(C(OC)OC)S3)[nH]c12 (stereo not shown) [Example 88, 2-[5-(Dimethoxymethyl)-4,5-dihydro-1,3-thiazol-2-yl]-7-(2-methoxy-1-methylethoxy)-5-[4-(methylsulfonyl)phenoxy]-1H-indole] |
| 190 to 192 °C | CNC(=O)CC1CN=C(c2cc3cc(Oc4ccc(S(C)(=O)=O)cn4)cc(OC(C)C)c3[nH]2)S1 (stereo not shown) [Example 68, N-Methyl-2-{2-[7-(1-methylethoxy)-5-{[5-(methylsulfonyl)pyridin-2-yl]oxy}-1H-indol-2-yl]-4,5-dihydro-1,3-thiazol-5-yl}acetamide] |
| 138 to 139 °C | COCC(C)Oc1cc(Oc2ccc(S(C)(=O)=O)nc2)cc2cc(C3=NCC(CCO)S3)[nH]c12 (stereo not shown) [Example 84, 2-{2-[7-(2-Methoxy-1-methylethoxy)-5-{[6-(methylsulfonyl)pyridin-3-yl]oxy}-1H-indol-2-yl]-4,5-dihydro-1,3-thiazol-5-yl}ethanol] |
| 208 to 210 °C | CCOc1cc(Oc2ccc(S(C)(=O)=O)nc2)cc2cc(C3=NCC(CC(=O)O)S3)[nH]c12 (stereo not shown) [Example 96, [2-(7-Ethoxy-5-{[6-(methylsulfonyl)pyridin-3-yl]oxy}-1H-indol-2-yl)-4,5-dihydro-1,3-thiazol-5-yl]acetic acid] |
| 143 to 144 °C | COCCOc1c(F)c(Oc2ccc(S(C)(=O)=O)nc2)cc2cc(C3=NCC(CC(N)=O)S3)[nH]c12 (stereo not shown) [Example 93, 2-{2-[6-Fluoro-7-(2-methoxyethoxy)-5-{[6-(methylsulfonyl)pyridin-3-yl]oxy}-1H-indol-2-yl]-4,5-dihydro-1,3-thiazol-5-yl}acetamide] |
| 125 to 126 °C | CNC(=O)CC1CN=C(c2cc3cc(Oc4ccc(S(C)(=O)=O)cc4)cc(OC)c3[nH]2)S1 (stereo not shown) [Example 103, 2-(2-{7-Methoxy-5-[4-(methylsulfonyl)phenoxy]-1H-indol-2-yl}-4,5-dihydro-1,3-thiazol-5-yl)-N-methylacetamide] |
| 195 to 196 °C | CCOc1cc(Oc2ccc(S(C)(=O)=O)nc2)cc2cc(C3=NCC(CC(N)=O)S3)[nH]c12 (stereo not shown) [Example 100, 2-[2-(7-Ethoxy-5-{[6-(methylsulfonyl)pyridin-3-yl]oxy}-1H-indol-2-yl)-4,5-dihydro-1,3-thiazol-5-yl]acetamide] |
| 200 to 201 °C | COc1cc(Oc2ccc(S(C)(=O)=O)nc2)cc2cc(C3=NCC(CC(=O)NCC(C)(C)O)S3)[nH]c12 (stereo not shown) [Example 73, N-(2-Hydroxy-2-methylpropyl)-2-[2-(7-methoxy-5-{[6-(methylsulfonyl)pyridin-3-yl]oxy}-1H-indol-2-yl)-4,5-dihydro-1,3-thiazol-5-yl]acetamide] |
| 248 to 249 °C | COc1cc(Oc2ccc(S(C)(=O)=O)nc2)cc2cc(C3=NCC(CC(=O)NC4CC4)S3)[nH]c12 (stereo not shown) [Example 76, N-Cyclopropyl-2-[2-(7-methoxy-5-{[6-(methylsulfonyl)pyridin-3-yl]oxy}-1H-indol-2-yl)-4,5-dihydro-1,3-thiazol-5-yl]acetamide] |
| 151 to 152 °C | CNC(=O)CC1CN=C(c2cc3cc(Oc4ccc(S(C)(=O)=O)nc4)c(F)c(OCCOC)c3[nH]2)S1 (stereo not shown) [Example 92, 2-{2-[6-Fluoro-7-(2-methoxyethoxy)-5-{[6-(methylsulfonyl)pyridin-3-yl]oxy}-1H-indol-2-yl]-4,5-dihydro-1,3-thiazol-5-yl}-N-methylacetamide] |
| 147 to 148 °C | CCOc1cc(Oc2ccc(S(C)(=O)=O)nc2)cc2cc(C3=NCC(CCO)S3)[nH]c12 (stereo not shown) [Example 95, 2-[2-(7-Ethoxy-5-{[6-(methylsulfonyl)pyridin-3-yl]oxy}-1H-indol-2-yl)-4,5-dihydro-1,3-thiazol-5-yl]ethanol] |
| 212 to 213 °C | CC(C)Oc1cc(Oc2ccc(S(C)(=O)=O)cn2)cc2cc(C3=NCC(CC(N)=O)S3)[nH]c12 (stereo not shown) [Example 67, 2-{2-[7-(1-Methylethoxy)-5-{[5-(methylsulfonyl)pyridin-2-yl]oxy}-1H-indol-2-yl]-4,5-dihydro-1,3-thiazol-5-yl}acetamide] |
| 144 to 145 °C | COc1cc(Oc2ccc(S(C)(=O)=O)cc2)cc2cc(C3=NCC(CC(=O)O)S3)[nH]c12 (stereo not shown) [Example 102, (2-{7-Methoxy-5-[4-(methylsulfonyl)phenoxy]-1H-indol-2-yl}-4,5-dihydro-1,3-thiazol-5-yl)acetic acid] |

Reference: patent US8673942B2, “Fused ring compounds and use thereof” (Takeda Pharmaceutical Company Limited, priority 2008, dated 2014)
